Calls of active or inactive are those of the source.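 Rule for the calls: active = inhibition of 50% or more in at least one of the four enzyme panels; inactive = below 50% inhibition in every panel.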
Key:
Experiment in all cases: single-point PAD isozyme enzyme inhibition – biochemical, colorimetric, BAEE substrate, HTS hits, selectivity assay for PAD4 inhibitor project, late-stage follow-up (AID 588488)
[1] = biological target: Protein-arginine deiminase type-1 (Homo sapiens) (UniProt Q9ULC6); details: Recombinant PAD1-4, BAEE citrulline colorimetric absorbance; PAD1; at 10 µM; hits give high values
Protein-arginine deiminase type-1 (Homo sapiens), sequence (Q9ULC6 whole entry, looked up): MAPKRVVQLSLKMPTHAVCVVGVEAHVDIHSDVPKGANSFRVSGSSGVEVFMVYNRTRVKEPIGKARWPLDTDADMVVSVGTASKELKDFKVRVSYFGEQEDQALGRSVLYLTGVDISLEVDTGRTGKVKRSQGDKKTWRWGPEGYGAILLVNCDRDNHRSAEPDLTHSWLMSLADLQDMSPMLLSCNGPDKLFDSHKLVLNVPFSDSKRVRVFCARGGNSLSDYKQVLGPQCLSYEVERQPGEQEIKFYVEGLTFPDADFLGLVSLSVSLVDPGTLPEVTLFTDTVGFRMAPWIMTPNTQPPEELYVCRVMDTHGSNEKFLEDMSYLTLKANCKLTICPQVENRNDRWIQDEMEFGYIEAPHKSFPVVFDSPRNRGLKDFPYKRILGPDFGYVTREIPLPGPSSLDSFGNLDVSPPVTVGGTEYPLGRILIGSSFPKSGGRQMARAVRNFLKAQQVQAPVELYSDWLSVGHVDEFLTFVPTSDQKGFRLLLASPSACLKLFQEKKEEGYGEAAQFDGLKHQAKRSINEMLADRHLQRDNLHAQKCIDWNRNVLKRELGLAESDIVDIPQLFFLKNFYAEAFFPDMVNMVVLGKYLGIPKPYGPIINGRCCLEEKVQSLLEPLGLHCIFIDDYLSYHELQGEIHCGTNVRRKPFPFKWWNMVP

[2] = biological target: Protein-arginine deiminase type-2 (Homo sapiens) (UniProt Q9Y2J8); details: Recombinant PAD1-4, BAEE citrulline colorimetric absorbance; PAD2; at 10 µM; hits give high values
Protein-arginine deiminase type-2 (Homo sapiens), sequence (Q9Y2J8 whole entry, looked up): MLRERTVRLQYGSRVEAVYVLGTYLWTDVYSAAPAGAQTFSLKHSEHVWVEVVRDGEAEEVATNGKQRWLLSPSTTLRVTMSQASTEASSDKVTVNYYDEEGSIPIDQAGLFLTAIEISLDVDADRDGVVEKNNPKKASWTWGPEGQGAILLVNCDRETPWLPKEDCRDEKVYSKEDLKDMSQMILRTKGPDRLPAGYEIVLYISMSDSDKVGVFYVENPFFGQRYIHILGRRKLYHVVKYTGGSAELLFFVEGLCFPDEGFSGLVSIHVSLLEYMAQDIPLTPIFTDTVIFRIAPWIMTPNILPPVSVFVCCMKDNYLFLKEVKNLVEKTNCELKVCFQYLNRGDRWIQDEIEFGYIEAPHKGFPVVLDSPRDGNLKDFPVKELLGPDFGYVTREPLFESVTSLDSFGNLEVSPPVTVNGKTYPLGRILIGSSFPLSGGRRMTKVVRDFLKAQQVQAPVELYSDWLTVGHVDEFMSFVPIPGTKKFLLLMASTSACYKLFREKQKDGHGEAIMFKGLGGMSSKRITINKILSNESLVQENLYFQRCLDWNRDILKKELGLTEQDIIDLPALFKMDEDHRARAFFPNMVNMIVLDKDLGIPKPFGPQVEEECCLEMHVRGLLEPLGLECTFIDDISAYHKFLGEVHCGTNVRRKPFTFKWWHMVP

[3] = biological target: Protein-arginine deiminase type-3 (Homo sapiens) (UniProt Q9ULW8); details: Recombinant PAD1-4, BAEE citrulline colorimetric absorbance; PAD3; at 10 µM; hits give high values
Protein-arginine deiminase type-3 (Homo sapiens), sequence (Q9ULW8 whole entry, looked up): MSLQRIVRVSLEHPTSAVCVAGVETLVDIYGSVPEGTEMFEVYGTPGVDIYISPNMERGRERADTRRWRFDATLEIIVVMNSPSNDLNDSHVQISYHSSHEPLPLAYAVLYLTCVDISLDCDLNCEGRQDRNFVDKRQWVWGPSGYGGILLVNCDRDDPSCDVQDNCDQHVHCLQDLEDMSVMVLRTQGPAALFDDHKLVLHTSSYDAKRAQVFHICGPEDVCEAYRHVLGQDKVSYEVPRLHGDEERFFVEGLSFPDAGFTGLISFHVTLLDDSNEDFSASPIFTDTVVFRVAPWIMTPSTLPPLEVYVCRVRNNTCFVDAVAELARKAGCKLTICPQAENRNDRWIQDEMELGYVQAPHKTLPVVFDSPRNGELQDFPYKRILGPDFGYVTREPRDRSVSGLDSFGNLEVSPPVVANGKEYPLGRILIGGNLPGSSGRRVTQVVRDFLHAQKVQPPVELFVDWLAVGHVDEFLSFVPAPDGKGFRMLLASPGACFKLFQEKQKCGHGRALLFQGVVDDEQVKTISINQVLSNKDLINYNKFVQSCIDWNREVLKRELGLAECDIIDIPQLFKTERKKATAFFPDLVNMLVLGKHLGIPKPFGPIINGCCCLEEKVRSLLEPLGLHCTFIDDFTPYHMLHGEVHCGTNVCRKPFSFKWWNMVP

[4] = biological target: Protein-arginine deiminase type-4 (Homo sapiens) (UniProt Q9UM07); details: Recombinant PAD1-4, BAEE citrulline colorimetric absorbance; PAD4; at 10 µM; hits give high values
Protein-arginine deiminase type-4 (Homo sapiens), sequence (Q9UM07 whole entry, looked up): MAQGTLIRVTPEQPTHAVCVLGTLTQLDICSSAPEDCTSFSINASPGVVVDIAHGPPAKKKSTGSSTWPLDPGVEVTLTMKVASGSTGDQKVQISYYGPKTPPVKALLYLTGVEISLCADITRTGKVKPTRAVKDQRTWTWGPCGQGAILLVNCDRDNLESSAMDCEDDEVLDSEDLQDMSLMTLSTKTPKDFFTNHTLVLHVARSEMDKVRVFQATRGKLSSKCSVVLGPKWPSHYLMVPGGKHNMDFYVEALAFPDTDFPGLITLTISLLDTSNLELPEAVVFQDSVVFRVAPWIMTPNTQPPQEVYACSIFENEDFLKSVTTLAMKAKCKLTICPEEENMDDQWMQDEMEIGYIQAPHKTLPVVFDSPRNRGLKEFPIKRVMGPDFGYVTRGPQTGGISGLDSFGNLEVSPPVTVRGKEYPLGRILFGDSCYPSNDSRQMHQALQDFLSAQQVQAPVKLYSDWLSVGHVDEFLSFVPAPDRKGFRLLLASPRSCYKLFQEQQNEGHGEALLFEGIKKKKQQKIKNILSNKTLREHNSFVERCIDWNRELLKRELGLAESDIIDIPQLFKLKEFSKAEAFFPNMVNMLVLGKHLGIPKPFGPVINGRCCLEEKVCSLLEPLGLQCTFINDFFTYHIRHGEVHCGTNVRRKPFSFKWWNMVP

Measured: inhibition

COc1ccc(C2C(C#N)=C(N)N(N(C)C)C3=C2C(=O)CCC3)cc1 (configuration not stated)
inactive: [1] 9% | [2] 7% | [3] -1% | [4] 21%

CCN(CC)c1cccc(OC2=NS(=O)(=O)c3ccccc32)c1
inactive: [1] 3% | [2] 18% | [3] 6% | [4] 16%

CCOc1nc(Nc2ccc(OC)cc2OC)nc(OCC)n1
inactive: [1] 27% | [2] 12% | [3] -2% | [4] 9%

COc1cccc(/C=C2/CN(C)CC3=C2OC(N)=C(C#N)C3c2cccc(OC)c2)c1 (configuration not stated)
inactive: [1] 18% | [2] 20% | [3] -20% | [4] 20%

CC(=O)N(Cc1cc(=O)[nH]c2ccccc12)c1cccc(C)c1
inactive: [1] 4% | [2] 21% | [3] -3% | [4] 16%

Cc1nonc1OC(C)CNc1ccc([N+](=O)[O-])cc1 (configuration not stated)
inactive: [1] 8% | [2] 27% | [3] 7% | [4] 12%

Cc1cc(-c2nnc(SCC(=O)Nc3ccc(F)c(F)c3)n2N)n[nH]1
inactive: [1] 1% | [2] 6% | [3] -7% | [4] -1%

COc1cccc2cc(C(=O)NC3CC(C)(C)NC(C)(C)C3)c(=O)oc12
inactive: [1] -2% | [2] 3% | [3] -2% | [4] 17%

N#CCCN(C(=O)Cn1nc(C(=O)O)c2ccccc2c1=O)c1ccccc1
inactive: [1] 13% | [2] 10% | [3] -12% | [4] 17%

Cc1c(C(=O)N2CCCCC2)c(S(=O)(=O)N2CCN(c3ccc(Cl)cc3)CC2)c(C)n1C
inactive: [1] 6% | [2] 4% | [3] -6% | [4] 15%

O=C(NCC1CCCO1)c1cc2c([nH]c3ccccc32)c(-c2ccc(F)cc2)n1 (configuration not stated)
inactive: [1] 5% | [2] 20% | [3] -2% | [4] -3%

CC(NC(=O)Nc1ccc(O)cc1)(C(F)(F)F)C(F)(F)F
inactive: [1] 8% | [2] -10% | [3] -11% | [4] 14%

CN(C)CCN(Cc1ccccc1)c1ccccn1
inactive: [1] -7% | [2] 22% | [3] -9% | [4] 6%

Cc1cc(N(C)NC(=S)Nc2ccccc2)nc(C)n1
inactive: [1] 5% | [2] 17% | [3] -6% | [4] 1%

CN(C)CCCNc1cn[nH]c(=O)c1Cl
inactive: [1] 27% | [2] 20% | [3] 2% | [4] 42%

COc1ccc(CCNC(=O)COC(=O)c2ccc(C)s2)cc1
inactive: [1] 5% | [2] 9% | [3] -24% | [4] 3%

CCN(CC)S(=O)(=O)c1ccc(N=NC2=C(O)CCCC2=O)cc1
inactive: [1] 0% | [2] 15% | [3] 17% | [4] 10%

Cc1nn(-c2cccc(Cl)c2)c2c1C(c1cccnc1)C(C#N)=C(N)O2 (configuration not stated)
inactive: [1] -3% | [2] 7% | [3] -4% | [4] 1%

Cc1ccc(CNC(=O)c2ccc(C)c(S(=O)(=O)N3CCCCC3)c2)cc1
inactive: [1] 21% | [2] 15% | [3] -2% | [4] 13%

COc1cccc(NC(=O)C2c3cc(OC)c(OC)cc3C(=O)N(C)C2c2cccnc2)c1 (configuration not stated)
inactive: [1] 5% | [2] 26% | [3] -3% | [4] 8%

S=C(NCc1ccco1)Nc1cccc(Cl)c1
inactive: [1] 17% | [2] 13% | [3] -2% | [4] 11%

Cc1ccc(C2CC(=O)Oc3cc(O)ccc32)cc1 (configuration not stated)
inactive: [1] 7% | [2] 17% | [3] -3% | [4] 12%

O=c1cc(-c2ccc(Cl)cc2)[nH][nH]1
inactive: [1] 1% | [2] -6% | [3] -4% | [4] 4%

Cc1nn(-c2ccccc2)c(C)c1NC(=O)COc1ccc(Cl)cc1Cl
inactive: [1] 2% | [2] 17% | [3] -3% | [4] 16%

COc1ccc(S(=O)(=O)Nc2ccccc2C)cc1
inactive: [1] 31% | [2] 14% | [3] -3% | [4] 18%

COc1cccc(NC(=O)CN(C)C(=O)C23CC4CC(CC(Cl)(C4)C2)C3)c1
inactive: [1] 6% | [2] 20% | [3] -3% | [4] 26%

COC(=O)c1cc(C)nc(Sc2ccccc2N)n1
inactive: [1] 10% | [2] 15% | [3] -14% | [4] 6%

N#CCCn1[nH]c(-c2ccccc2)cc1=O
inactive: [1] 3% | [2] 39% | [3] -12% | [4] 28%

Cc1c(NC(=O)CSc2nccn2C)c(=O)n(-c2ccccc2)n1C
inactive: [1] 22% | [2] 3% | [3] -18% | [4] 0%

Cc1cc2ncn(-c3ncccc3[N+](=O)[O-])c2cc1C
inactive: [1] 25% | [2] -8% | [3] 8% | [4] 24%

Cn1c(=O)c2c(ncn2CC(=O)Nc2nc(-c3ccccc3Cl)cs2)n(C)c1=O
inactive: [1] 8% | [2] 45% | [3] 3% | [4] 25%

Cc1oc2c(C)c(O)ccc2c(=O)c1-c1ccc2ccccc2n1
inactive: [1] 17% | [2] 9% | [3] -19% | [4] 18%

COc1ccc(-c2cc(=O)[nH][nH]2)cc1
inactive: [1] 14% | [2] 26% | [3] 3% | [4] 20%
